According to US10794932B2, “Biosensor for the detection of a biological target, and method for manufacturing the same” (The Governing Council of The University of Toronto, priority 2016, dated 2020):

Key:
TLR4 = assay: TLR multiplex sensor, EIS film resistance before/after exposure (Example 5), TLR4 sensor; format: binding; conditions: exposure 20 minutes
Method: For each multiplex TLR sensor, 5 separate gold electrodes were used for binding TLR 1 to 5. The 5 modified electrodes/sensors were exposed to the analyte solution and evaluated one by one using potentiostats and electrochemical cells.
The preparation of each TLR biosensor was evaluated using EIS. It is understood that cyclic voltammetry as well as electrochemical impedance microscopy can also be used for monitoring the modification. […] Ethanolamine was then applied to deactivate unreacted LPA. Due to dissociation of unspecific absorbed TLR, the Rct dropped slightly. Experimental curves were evaluated using a model to obtain the Rct values, which can be seen at FIG. 9. Measurements from at least triplicated samples prepared were used to obtain statistic information.
The TLR1 sensor was exposed to an E. coli K12 whole-cell buffer solution for 20 minutes. The sensor was then removed, washed thoroughly and characterized in the electrochemical cell measuring the Rct again. The difference in Rct before and after exposure is the response triggered by the target. The same protocol was carried out for all remaining TLRs (TLRs 2-5) to obtain one set of pattern for E. coli K12 (FIGS. 10b to 10e). Multiple sets were investigated for statistical relevance. […]

rmTLR5 = molecular target: T1, rmTLR5 (Mus musculus, UniProt Q9JLF7); assay: Selectivity test, TLR5 sensor, EIS; format: binding; conditions: 10 μM
T1 construct: purchased
Method: TLR sensors were prepared using fresh, cleaned gold electrodes. The electrodes were immersed in a 2 mM 1-lipoic acid n-hydroxysuccinimide ester (LPA) ethanol solution for 48 hours at 277 K. The electrodes were then rinsed thoroughly using absolute ethanol and blown dry under nitrogen before incubation in 200 μg/ml rmTLR1, 200 μg/ml rmTLR2 and 200 μg/ml ‘rmTLR1 and 2’ mixture for 72 hours at 277 K. The rmTLR1 and 2 mixture was prepared by mixing 200 μg/ml rmTLR1 and 200 μg/ml rmTLR2 with a volume ratio of 1:1. The final concentration of each component was 100 μg/ml and the total concentration of the combined TLR protein content was 200 μg/ml. Following the supplier's recommended conditions, all TLRs were prepared in PBS buffer (pH˜7.4). The electrodes were rinsed with an excess volume of Milli-Q water and blown dry under nitrogen. An ethanolamine-tris buffer solution was prepared by dissolving 1.2 g of ethanolamine and 0.121 g of Tris base in 20 mL of water, the pH was adjusted to 8.4 using hydrochloric acid. […]
All electrochemical measurements were carried out using a cell with a three-electrode configuration in an enclosed Faraday cage. […] The experimental EIS curves were evaluated to determine the film resistance using ZSimpWin 2.0 software. […]

[1] = test system: Toll-like receptor expressing cells; conditions: cited from earlier work

T1 sequence (Q9JLF7 27-859): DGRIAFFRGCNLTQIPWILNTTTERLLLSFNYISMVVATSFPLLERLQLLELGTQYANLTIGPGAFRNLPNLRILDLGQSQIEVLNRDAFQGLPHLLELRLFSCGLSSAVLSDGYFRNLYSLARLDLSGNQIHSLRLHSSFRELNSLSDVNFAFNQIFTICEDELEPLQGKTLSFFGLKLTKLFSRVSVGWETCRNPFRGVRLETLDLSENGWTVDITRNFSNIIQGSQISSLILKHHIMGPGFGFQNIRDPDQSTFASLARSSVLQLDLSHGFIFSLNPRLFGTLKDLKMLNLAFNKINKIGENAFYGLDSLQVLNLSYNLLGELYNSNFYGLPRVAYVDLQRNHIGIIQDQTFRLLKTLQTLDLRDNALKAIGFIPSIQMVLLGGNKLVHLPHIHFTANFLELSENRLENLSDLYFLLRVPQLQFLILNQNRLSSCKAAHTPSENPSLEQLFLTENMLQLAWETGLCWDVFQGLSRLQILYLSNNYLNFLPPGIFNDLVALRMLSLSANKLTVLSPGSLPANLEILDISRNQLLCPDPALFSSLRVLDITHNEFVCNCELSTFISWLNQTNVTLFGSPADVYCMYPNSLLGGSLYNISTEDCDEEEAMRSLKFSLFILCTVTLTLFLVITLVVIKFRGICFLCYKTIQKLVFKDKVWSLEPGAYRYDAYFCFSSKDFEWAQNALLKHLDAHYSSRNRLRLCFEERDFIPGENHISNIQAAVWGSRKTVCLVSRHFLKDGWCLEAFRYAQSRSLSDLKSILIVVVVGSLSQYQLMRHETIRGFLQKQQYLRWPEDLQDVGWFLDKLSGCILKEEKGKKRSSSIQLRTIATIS

Substance: Pam3CSK4
- delta Rct % (TLR4): limited responses
- electrochemical response (selectivity test) (rmTLR5): slight signal variations
- detection (lowest level previously reported) [1]: 2 µg/mL
